This passage reports EC50 and CC50 results from patent US20260325561A1, “4'-SUBSTITUTED NUCLEOSIDES AND NUCLEOTIDES AS ANTIVIRAL AGENTS” (THE SCRIPPS RESEARCH INSTITUTE, priority 2023, published 2026).

In series [1] the test system is DENV-2. Briefly: microbe, parasite or virus in culture. Particulars: Dengue virus, DENV2, HepG2, 24 h, read-out: DENV-2 / HepG2 EC50. It counts as cell-based, DENV-2 16681.
In series [2] the test system is RSV A2. Kind of series: microbe, parasite or virus in culture. It counts as cell-based. Particulars: human respiratory syncytial virus, HEp-2, 72 h, read-out: RSV A2 / Hep2 EC50.
The test system of series [3] is HRV 14. Kind of series: microbe, parasite or virus in culture. The class given is cell-based, Human Rhinovirus 14 strain 1059. Particulars: Rhinovirus B, H1-HeLa, 48 h, read-out: HRV / H1 HeLa B 14 EC50.
Series [4] can be described thus: in vitro. Particulars: human, hepg2 cells.
Series [5] in a line: in vitro. Particulars: human, hep2 cells.
Series [6] is described as follows: in vitro. Particulars: human, h1 hela cells.
The test system of series [7] is SARS-CoV-2. Kind of series: microbe, parasite or virus in culture. It counts as cell-based, SARS-CoV-2 strain USA-WA1/2020. Particulars: Severe acute respiratory syndrome coronavirus 2, HeLa-ACE2, 24 h, read-out: SARS-CoV-2 / HeLa-ACE2 EC50.
A short description of series [8]: in vitro. Particulars: human, hela-ace2 cells.

The term CC50 denotes the concentration that lowers cell viability or growth by half. Lower therefore signals harm at low concentration.

Regarding `Cc1ncnc2c1ccn2[C@@H]1O[C@](F)(CO)[C@@H](O)[C@H]1O` [Example 53, (2S,3S,4R,5R)-2-fluoro-2-(hydroxymethyl)-5-(4-methyl-7H-pyrrolo[2,3-d]pyrimidin-7-yl)tetrahydrofuran-3,4-diol], the EC50 in series [1] was 1 to 10 µM; in series [2], > 10 µM; in series [3], > 10 µM. The CC50 at 72 h in series [4] was 10 to 99 µM. In addition, the CC50 in series [5] and in series [6] was > 99 µM in each case.
With `CC(C)OC(=O)[C@H](C)NP(=O)(OC[C@@]1(F)O[C@@H](n2cnc3c(=O)[nH]c(N)nc32)C(F)(F)[C@@H]1O)Oc1ccccc1` (stereo partly drawn) [Example 61, isopropyl ((((2S,3R,5R)-5-(2-amino-6-oxo-1,6-dihydro-9H-purin-9-yl)-2,4,4-trifluoro-3-hydroxytetrahydrofuran-2-yl)methoxy)(phenoxy)phosphoryl)-L-alaninate], the EC50 in series [1] is > 10 µM. Further, in series [4], the CC50 at 72 h was > 99 µM.
As for `C[C@]1(O)[C@H](c2ccc3c(N)ncnn23)O[C@@](CO)(N=[N+]=[N-])[C@H]1O` [Example 9, (2R,3S,4R,5S)-5-(4-aminopyrrolo[2,1-f][1,2,4]triazin-7-yl)-2-azido-2-(hydroxymethyl)-4-methyltetrahydrofuran-3,4-diol], the EC50 in series [1], in series [7], in series [2] and in series [3] was > 10 µM in each case. Besides, the CC50 at 72 h in series [4] was > 99 µM. In addition, the CC50 at 24 h in series [8] was > 99 µM. In addition, the cytotoxic concentration (CC50) in series [5] and in series [6] was > 99 µM throughout.
In the case of `[N-]=[N+]=N[C@]1(CO)C[C@@H](O)[C@H](n2ccc3c(N)ncnc32)O1` [Example 8, (2R,3R,5R)-2-(4-amino-7H-pyrrolo[2,3-d]pyrimidin-7-yl)-5-azido-5-(hydroxymethyl)tetrahydrofuran-3-ol], the EC50 in series [1], in series [7], in series [2] and in series [3] was > 10 µM throughout. Further, the CC50 at 72 h in series [4] was > 99 µM. Moreover, in series [8], the CC50 at 24 h was > 99 µM. Further, the CC50 in series [5] and in series [6] was > 99 µM each time.
For the compound `CNc1nc(N)nc2c1ncn2[C@@H]1O[C@](F)(COP(=O)(N[C@@H](C)C(=O)OC(C)C)Oc2ccccc2)[C@@H](O)[C@]1(F)Cl` (single isomer, unassigned) [Example 59], the EC50 in series [1] is 1 to 10 µM; in series [7] it was > 10 µM; in series [2], > 10 µM; in series [3] it was 1 to 10 µM. The CC50 at 72 h in series [4] is > 99 µM. For the same compound, the CC50 at 24 h in series [8] is > 99 µM. For the same compound, the CC50 in series [5] and in series [6] was > 99 µM throughout.
As for `CC(C)C(=O)OC[C@@]1(F)O[C@@H](n2ccc3c(N)ncnc32)[C@H](O)[C@@H]1O` [Example 46, ((2S,3S,4R,5R)-5-(4-amino-7H-pyrrolo[2,3-d]pyrimidin-7-yl)-2-fluoro-3,4-dihydroxytetrahydrofuran-2-yl)methyl isobutyrate], the EC50 is < 0.1 µM in series [1], 0.1 to 1 µM in series [7], 0.1 to 1 µM in series [2] and 0.1 to 1 µM in series [3]. This compound also yielded a CC50 at 72 h in series [4] of 1 to 10 µM. In series [8], this compound gave a CC50 at 24 h of 1 to 10 µM. The CC50 in series [5] and in series [6] was 10 to 99 µM in each case.
`CCOc1nc(N)nc2c1ncn2[C@@H]1O[C@](F)(CO[P@@](=O)(N[C@@H](C)C(=O)OC(C)C)Oc2ccccc2)[C@@H](O)[C@]1(F)Cl` [Example 67, isopropyl ((((2S,3R,4S,5R)-5-(2-amino-6-ethoxy-9H-purin-9-yl)-4-chloro-2,4-difluoro-3-hydroxytetrahydrofuran-2-yl)methoxy)(phenoxy)phosphoryl)-L-alaninate]: the EC50 was 1 to 10 µM in series [1], > 10 µM in series [7], > 10 µM in series [2] and 1 to 10 µM in series [3]. The CC50 at 72 h in series [4] lay within 10 to 99 µM. The CC50 at 24 h in series [8] fell in the range of 10 to 99 µM. Further, the CC50 in series [5] and in series [6] was 10 to 99 µM each time.
On to `C#C[C@]1(O)[C@H](n2ccc3c(NCCC)ncnc32)O[C@](F)(CO)[C@H]1O` [Example 70, (2S,3S,4R,5R)-4-ethynyl-2-fluoro-2-(hydroxymethyl)-5-(4-(propylamino)-7H-pyrrolo[2,3-d]pyrimidin-7-yl)tetrahydrofuran-3,4-diol], for which the EC50 in series [1], in series [7], in series [2] and in series [3] was > 10 µM in each case. For the same compound, in series [4], the CC50 at 72 h fell in the range of 10 to 99 µM. Further, the CC50 at 24 h in series [8] is > 99 µM. Besides, the CC50 in series [5] and in series [6] was 10 to 99 µM throughout.
On to `C[C@]1(Cl)[C@H](n2cnc3c(=O)[nH]c(N)nc32)O[C@](F)(CO)[C@H]1O` [Example 62, 2-amino-9-((2R,3R,4R,5S)-3-chloro-5-fluoro-4-hydroxy-5-(hydroxymethyl)-3-methyltetrahydrofuran-2-yl)-1,9-dihydro-6H-purin-6-one], for which the EC50 in series [1] is 0.1 to 1 µM; in series [7], > 10 µM; in series [2], > 10 µM; in series [3], > 10 µM. For the same compound, in series [4], the CC50 at 72 h was in the range of 10 to 99 µM. For the same compound, the CC50 at 24 h in series [8] is > 99 µM. The CC50 in series [5] and in series [6] was 10 to 99 µM throughout.
Turning to `Nc1ncnc2c1c(C(F)(F)F)cn2[C@@H]1O[C@](F)(CO)[C@@H](O)[C@H]1O` [Example 42, (2S,3S,4R,5R)-5-(4-amino-5-(trifluoromethyl)-7H-pyrrolo[2,3-d]pyrimidin-7-yl)-2-fluoro-2-(hydroxymethyl)tetrahydrofuran-3,4-diol], in series [1], the EC50 is < 0.1 µM. Also, the CC50 at 72 h in series [4] is < 1 µM.
Turning to `CO[C@]1(CO)O[C@@H](c2ccc3c(N)ncnn23)[C@](C)(O)[C@@H]1O` [Example 3, (2R,3S,4R,5S)-5-(4-aminopyrrolo[2,1-f][1,2,4]triazin-7-yl)-2-(hydroxymethyl)-2-methoxy-4-methyltetrahydrofuran-3,4-diol], the EC50 in series [1], in series [7], in series [2] and in series [3] was > 10 µM in each case. For the same compound, the CC50 at 72 h in series [4] is > 99 µM. Besides, the CC50 at 24 h in series [8] was > 99 µM. Besides, the CC50 in series [5] and in series [6] was > 99 µM each time.
Turning to `OC[C@@]1(F)O[C@@H](n2ccc3c(C4CC4)ncnc32)[C@H](O)[C@@H]1O` [Example 54, (2S,3S,4R,5R)-5-(4-cyclopropyl-7H-pyrrolo[2,3-d]pyrimidin-7-yl)-2-fluoro-2-(hydroxymethyl)tetrahydrofuran-3,4-diol], the EC50 in series [1], in series [2] and in series [3] was > 10 µM each time. Besides, the CC50 at 72 h in series [4] is > 99 µM. The CC50 in series [5] and in series [6] was > 99 µM each time.
With `Nc1ncnc2c1c(-c1nc3ccccc3s1)cn2[C@@H]1O[C@](F)(CO)[C@@H](O)C1(F)F` [Example 55, (2S,3R,5R)-5-(4-amino-5-(benzo[d]thiazol-2-yl)-7H-pyrrolo[2,3-d]pyrimidin-7-yl)-2,4,4-trifluoro-2-(hydroxymethyl)tetrahydrofuran-3-ol], the EC50 in series [7] is < 0.1 µM. The compound also had a CC50 at 24 h in series [8] of 1 to 10 µM.
